Values after ≈ are worked out from the molar mass of the structure shown. Values joined by “and” are separate entries in the source; they are usually repeats but may differ in a detail not shown here. Identical values can stand only once. Each block holds one compound with its values, some of them ahead of it.
Assays:
Test in all cases: ≥ marks a high value that may be exact or a test limit, other limits are often not marked, values filed in µg/mL are converted to µM
[1] = test system: Aspergillus flavus KCTC 6905
[2] = test system: Aspergillus fumigatus KCTC 6145
[3] = test system: Candida albicans KCTC 7270
[4] = test system: Candida krusei CCARM 14017
[5] = test system: Candida parapsilosis CCARM 14016
[6] = test system: Candida tropicalis KCTC 7221
[7] = test system: Fusarium verticillioides KCTC 6149
[8] = test system: Trichosporon beigelii KCTC 7707
[9] = test system: Escherichia coli W3110
[10] = test system: Klebsiella pneumoniae ATCC BAA-1705
[11] = test system: Bacillus megaterium ATCC 10778
[12] = test system: Candida albicans MDM8
[13] = test system: Candida tropicalis IOC 4560
[14] = test system: Enterobacter cloacae beta-12
[15] = test system: Escherichia coli SBS 363
[16] = test system: Micrococcus luteus A270
[17] = test system: Serratia marcescens ATCC 4112
[18] = test system: Staphylococcus aureus ATCC 29213
[19] = test system: Staphylococcus epidermidis ATCC 12228
[20] = test system: Candida albicans CGMCC 2.2086
[21] = test system: Candida parapsilosis CGMCC 2.3989
[22] = test system: Candida tropicalis CGMCC 2.1975
[23] = test system: Escherichia coli 078
[24] = test system: Escherichia coli 987P
[25] = test system: Escherichia coli ATCC 25922
[26] = test system: Escherichia coli K88
[27] = test system: Escherichia coli K99
[28] = test system: Escherichia coli UB1005
[29] = test system: Lacticaseibacillus rhamnosus 7469
[30] = test system: Lactiplantibacillus plantarum 8014
[31] = test system: Pseudomonas aeruginosa ATCC 27853
[32] = test system: Pseudomonas aeruginosa PAO1
[33] = test system: Salmonella enterica subsp. enterica serovar Typhimurium ATCC 14028
[34] = test system: Salmonella enterica subsp. enterica serovar Typhimurium C77-31
[35] = test system: Staphylococcus aureus ATCC 25923
[36] = test system: Bacillus subtilis ATCC 6633

SMILES: CC[C@H](C)[C@H](NC(=O)CNC(=O)[C@H](CCC(N)=O)NC(=O)[C@H](C)NC(=O)[C@@H](NC(=O)[C@H](CCCCN)NC(=O)[C@H](CCCCN)NC(=O)[C@H](CC(C)C)NC(=O)[C@H](C)NC(=O)[C@H](CC(N)=O)NC(=O)[C@H](CC(C)C)NC(=O)CN)C(C)C)C(=O)N[C@@H](Cc1cnc[nH]1)C(=O)N[C@@H](CCC(=O)O)C(=O)N[C@@H](C)C(=O)N[C@@H](C)C(=O)N[C@@H](CCCCN)C(=O)N[C@@H](CC(C)C)C(=O)N[C@H](C(=O)N[C@@H](CC(N)=O)C(=O)N[C@@H](CC(N)=O)C(=O)N[C@@H](Cc1cnc[nH]1)C(=O)N[C@H](C(=O)N[C@@H](CCC(N)=O)C(N)=O)C(C)C)[C@@H](C)CC [GLNALKKVAQGIHEAAKLINNHVQ]
MIC [1]: ≥ 32 µM and 16 µM
MIC [2]: ≥ 32 µM and 16 µM
MIC [3]: 4 µM and 8 µM
MIC [4]: 6 µM and 8 µM
MIC [5]: ≥ 64 µM
MIC [6]: 2 µM and 1 µM
MIC [7]: ≥ 32 µM
MIC [8]: 1.5 µM and 1 µM

SMILES: CC[C@H](C)[C@H](NC(=O)[C@H](C)NC(=O)[C@H](CCC(=O)O)NC(=O)[C@H](Cc1cnc[nH]1)NC(=O)[C@H](C)NC(=O)CNC(=O)[C@H](CCC(N)=O)NC(=O)[C@H](Cc1ccccc1)NC(=O)[C@@H](NC(=O)[C@H](CCCCN)NC(=O)[C@H](CCCCN)NC(=O)[C@H](CC(C)C)NC(=O)[C@H](C)NC(=O)[C@H](CC(N)=O)NC(=O)[C@H](CC(C)C)NC(=O)CN)C(C)C)C(=O)N[C@@H](CCCCN)C(=O)N[C@@H](CC(C)C)C(=O)N[C@@H](C)C(=O)N[C@@H](CC(N)=O)C(=O)N[C@@H](CC(N)=O)C(=O)N[C@@H](Cc1cnc[nH]1)C(=O)N[C@H](C(=O)N[C@@H](CCC(N)=O)C(N)=O)C(C)C [GLNALKKVFQGAHEAIKLANNHVQ]
MIC [1]: ≥ 64 µM
MIC [3]: 8 µM and 16 µM
MIC [4]: 8 µM (≈ 20.8 µg/mL)
MIC [5]: ≥ 64 µM
MIC [6]: 2 µM (≈ 5.2 µg/mL)
MIC [7]: ≥ 64 µM
MIC [8]: 6 µM and 2 µM

SMILES: CC[C@H](C)[C@H](N)C(=O)N[C@@H](Cc1c[nH]c2ccccc12)C(=O)N[C@@H](Cc1c[nH]c2ccccc12)C(=O)N[C@@H](C)C(=O)N[C@@H](CCCCN)C(=O)N[C@@H](Cc1c[nH]c2ccccc12)C(=O)NCC(=O)N[C@@H](CC(C)C)C(=O)N[C@@H](CCCCN)C(=O)N[C@@H](CC(C)C)C(=O)N[C@@H](CC(C)C)C(=O)N[C@@H](CCCN=C(N)N)C(=O)N[C@@H](Cc1ccc(O)cc1)C(=O)N[C@@H](CCCN=C(N)N)C(=O)N[C@@H](CCCN=C(N)N)C(=O)N[C@@H](Cc1c[nH]c2ccccc12)C(=O)N[C@@H](Cc1ccc(O)cc1)C(=O)O [IWWAKWGLKLLRYRRWY]
MIC [9]: 1 µM (≈ 2.39 µg/mL)
MIC [10]: 4 µM (≈ 9.58 µg/mL)

SMILES: CC[C@H](C)[C@H](N)C(=O)N[C@@H](Cc1cnc[nH]1)C(=O)N[C@@H](Cc1cnc[nH]1)C(=O)N[C@H](C(=O)N[C@@H](Cc1cnc[nH]1)C(=O)N[C@@H](Cc1cnc[nH]1)C(=O)N[C@@H](Cc1cnc[nH]1)C(N)=O)[C@@H](C)CC [IHHIHHH]
MIC [20]: ≥ 64 µM
MIC [21]: ≥ 64 µM
MIC [22]: ≥ 64 µM
MIC [23]: ≥ 64 µM
MIC [24]: ≥ 64 µM
MIC [25]: > 64 µM
MIC [26]: ≥ 64 µM
MIC [27]: ≥ 64 µM
MIC [28]: ≥ 64 µM
MIC [29]: ≥ 64 µM
MIC [30]: ≥ 64 µM
MIC [31]: > 64 µM
MIC [32]: > 64 µM
MIC [33]: > 64 µM
MIC [34]: ≥ 64 µM
MIC [35]: 64 µM (≈ 59.5 µg/mL)
MIC [18]: > 64 µM
MIC [19]: > 64 µM

SMILES: CC(C)C[C@H](NC(=O)[C@H](C)NC(=O)CNC(=O)[C@H](CC(C)C)NC(=O)[C@@H](N)Cc1ccccc1)C(=O)N[C@@H](Cc1c[nH]c2ccccc12)C(=O)N[C@@H](CC(N)=O)C(=O)N[C@H](C(=O)N[C@@H](Cc1ccccc1)C(=O)N[C@@H](CCCCN)C(=O)N[C@@H](CO)C(=O)N[C@H](C(=O)N[C@@H](Cc1ccccc1)C(N)=O)C(C)C)C(C)C [FLGALWNVFKSVF]
MIC [11]: 1.6 µM (≈ 2.44 µg/mL)
MIC [36]: 0.8 µM (≈ 1.22 µg/mL)
MIC [12]: 6.3 µM (≈ 9.62 µg/mL)
MIC [13]: 1.6 µM (≈ 2.44 µg/mL)
MIC [14]: ≥ 50 µM
MIC [15]: 3.1 µM (≈ 4.73 µg/mL)
MIC [16]: 0.8 µM (≈ 1.22 µg/mL)
MIC [31]: > 50 µM
MIC [17]: 0.4 µM (≈ 0.611 µg/mL)
MIC [18]: 0.8 µM (≈ 1.22 µg/mL)

The next lines start with the values.

MIC [11]: 6.3 µM (≈ 9.02 µg/mL)
MIC [12]: 3.1 µM (≈ 4.44 µg/mL)
MIC [13]: 6.3 µM (≈ 9.02 µg/mL)
MIC [14]: ≥ 50 µM
MIC [15]: ≥ 50 µM
MIC [16]: 6.3 µM (≈ 9.02 µg/mL)
MIC [17]: 6.3 µM (≈ 9.02 µg/mL)
MIC [18]: 50 µM (≈ 71.6 µg/mL)
MIC [19]: > 50 µM
SMILES: CC(C)C[C@H](NC(=O)[C@H](C)NC(=O)CNC(=O)[C@H](CC(C)C)NC(=O)[C@@H](N)CCCCN)C(=O)N[C@@H](Cc1c[nH]c2ccccc12)C(=O)N[C@@H](CC(N)=O)C(=O)N[C@H](C(=O)N[C@@H](C)C(=O)N[C@@H](CCCCN)C(=O)N[C@@H](CO)C(=O)N[C@H](C(=O)N[C@@H](Cc1ccccc1)C(N)=O)C(C)C)C(C)C [KLGALWNVAKSVF]

MIC [9]: 2 µM (≈ 4.79 µg/mL)
MIC [10]: 16 µM (≈ 38.3 µg/mL)
SMILES: CC[C@H](C)[C@H](N)C(=O)N[C@@H](Cc1c[nH]c2ccccc12)C(=O)N[C@@H](Cc1c[nH]c2ccccc12)C(=O)N[C@@H](C)C(=O)N[C@@H](CCCCN)C(=O)N[C@@H](Cc1c[nH]c2ccccc12)C(=O)NCC(=O)N[C@@H](CC(C)C)C(=O)N[C@@H](CCCCN)C(=O)N[C@@H](Cc1c[nH]c2ccccc12)C(=O)N[C@@H](CC(C)C)C(=O)N[C@@H](CCCN=C(N)N)C(=O)N[C@@H](Cc1ccc(O)cc1)C(=O)N[C@@H](CCCN=C(N)N)C(=O)N[C@@H](CCCN=C(N)N)C(=O)N[C@H](C(=O)N[C@@H](Cc1ccc(O)cc1)C(=O)O)[C@@H](C)CC [IWWAKWGLKWLRYRRIY]

From DBAASP
